Activity calls are given as the source filed them. The rule behind the calls is not given here.
Tests used:
[1] = molecular target: T1, Serine/threonine-protein kinase 26 (Homo sapiens, UniProt Q9P289); assay: Binding affinity to N-terminal 6His-tagged TEV fused MST4 (unknown origin) expressed in Escherichia coli BL21 (DE3) cells assessed as dissociation constant by ITC analysis
Target sequence in this assay (Q9P289 whole entry, the tested form may be a part): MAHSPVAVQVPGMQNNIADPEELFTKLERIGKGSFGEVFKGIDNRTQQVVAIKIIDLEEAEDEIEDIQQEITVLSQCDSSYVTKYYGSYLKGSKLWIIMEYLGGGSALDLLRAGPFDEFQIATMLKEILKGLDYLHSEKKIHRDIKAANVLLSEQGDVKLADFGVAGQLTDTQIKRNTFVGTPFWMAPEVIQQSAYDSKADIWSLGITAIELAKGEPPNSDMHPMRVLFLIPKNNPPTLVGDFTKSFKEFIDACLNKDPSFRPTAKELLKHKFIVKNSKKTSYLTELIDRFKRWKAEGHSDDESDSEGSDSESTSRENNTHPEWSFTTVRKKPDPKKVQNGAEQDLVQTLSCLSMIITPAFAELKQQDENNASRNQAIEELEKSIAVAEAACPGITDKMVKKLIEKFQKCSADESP

[2] = Metabolic stability in Sprague-Dawley rat liver microsomes assessed as parent compound remaining at 10 uM preincubated with NADPH for 5 mins followed by microsomal addition and measured upto 60 mins by HPLC analysis; type: ADME, Microsome; conditions: time < 65 min, read-out: Stability
[3] = molecular target: LIM domain kinase 1 (Homo sapiens, UniProt P53667); assay: Inhibition of wildtype LIMK1 (unknown origin) assessed as residual activity at 1 uM relative to control
LIM domain kinase 1, sequence (P53667 whole entry, looked up, the tested form may be a part): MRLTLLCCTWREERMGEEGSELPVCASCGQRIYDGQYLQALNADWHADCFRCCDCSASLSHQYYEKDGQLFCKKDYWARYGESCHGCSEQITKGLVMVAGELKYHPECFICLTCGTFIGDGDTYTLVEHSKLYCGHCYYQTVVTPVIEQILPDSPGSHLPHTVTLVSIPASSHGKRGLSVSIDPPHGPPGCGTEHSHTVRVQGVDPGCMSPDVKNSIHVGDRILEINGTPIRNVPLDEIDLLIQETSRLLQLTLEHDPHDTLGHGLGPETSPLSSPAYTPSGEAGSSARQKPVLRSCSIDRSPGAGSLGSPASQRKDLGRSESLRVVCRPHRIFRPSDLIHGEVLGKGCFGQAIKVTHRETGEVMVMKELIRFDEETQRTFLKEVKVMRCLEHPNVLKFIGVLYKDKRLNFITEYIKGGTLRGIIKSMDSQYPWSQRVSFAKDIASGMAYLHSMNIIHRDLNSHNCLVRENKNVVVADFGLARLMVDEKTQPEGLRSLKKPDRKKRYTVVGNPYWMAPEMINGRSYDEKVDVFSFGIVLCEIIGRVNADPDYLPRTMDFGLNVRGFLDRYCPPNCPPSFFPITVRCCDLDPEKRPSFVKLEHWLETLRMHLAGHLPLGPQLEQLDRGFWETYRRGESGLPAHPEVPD

[4] = molecular target: T2, Serine/threonine-protein kinase 4 (Homo sapiens, UniProt Q13043); assay: Binding affinity to N-terminal full length human MST1 expressed in intact HEK293T cells incubated for 2 hrs by NanoBRET assay; type: cell-based
T2 sequence (Q13043 whole entry): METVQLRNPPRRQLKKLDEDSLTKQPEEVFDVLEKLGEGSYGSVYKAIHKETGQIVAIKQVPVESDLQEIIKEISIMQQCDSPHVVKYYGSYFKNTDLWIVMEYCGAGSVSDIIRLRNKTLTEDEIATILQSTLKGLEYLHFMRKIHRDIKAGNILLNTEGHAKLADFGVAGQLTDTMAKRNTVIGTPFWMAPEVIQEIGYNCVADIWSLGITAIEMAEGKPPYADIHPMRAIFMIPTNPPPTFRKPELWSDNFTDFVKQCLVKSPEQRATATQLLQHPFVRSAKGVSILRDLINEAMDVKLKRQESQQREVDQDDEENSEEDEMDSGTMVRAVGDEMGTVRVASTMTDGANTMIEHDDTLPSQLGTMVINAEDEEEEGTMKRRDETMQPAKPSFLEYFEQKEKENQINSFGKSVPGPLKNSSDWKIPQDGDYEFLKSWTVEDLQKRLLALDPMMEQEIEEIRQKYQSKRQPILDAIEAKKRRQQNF

[5] = molecular target: T3, Aurora kinase A (Homo sapiens) (UniProt O14965); assay: Binding affinity to STK6 (unknown origin) assessed as thermal stabilization by measuring change in melting temperature by DSF analysis
T3 sequence (whole entry): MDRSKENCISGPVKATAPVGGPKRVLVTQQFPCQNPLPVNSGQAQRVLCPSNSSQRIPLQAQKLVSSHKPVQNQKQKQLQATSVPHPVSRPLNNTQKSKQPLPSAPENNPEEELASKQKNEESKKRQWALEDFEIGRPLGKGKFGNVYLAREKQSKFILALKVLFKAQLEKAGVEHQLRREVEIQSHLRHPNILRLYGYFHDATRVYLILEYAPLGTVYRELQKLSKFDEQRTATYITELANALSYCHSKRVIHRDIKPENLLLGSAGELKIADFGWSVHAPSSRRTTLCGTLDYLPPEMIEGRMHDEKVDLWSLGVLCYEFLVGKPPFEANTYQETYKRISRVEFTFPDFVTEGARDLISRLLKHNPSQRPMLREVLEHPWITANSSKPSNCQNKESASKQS

[6] = molecular target: Glycogen synthase kinase-3 beta (Homo sapiens) (UniProt P49841); assay: Binding affinity to GSK3B (unknown origin) assessed as thermal stabilization by measuring change in melting temperature by DSF analysis
Glycogen synthase kinase-3 beta (Homo sapiens), sequence (P49841 whole entry, looked up): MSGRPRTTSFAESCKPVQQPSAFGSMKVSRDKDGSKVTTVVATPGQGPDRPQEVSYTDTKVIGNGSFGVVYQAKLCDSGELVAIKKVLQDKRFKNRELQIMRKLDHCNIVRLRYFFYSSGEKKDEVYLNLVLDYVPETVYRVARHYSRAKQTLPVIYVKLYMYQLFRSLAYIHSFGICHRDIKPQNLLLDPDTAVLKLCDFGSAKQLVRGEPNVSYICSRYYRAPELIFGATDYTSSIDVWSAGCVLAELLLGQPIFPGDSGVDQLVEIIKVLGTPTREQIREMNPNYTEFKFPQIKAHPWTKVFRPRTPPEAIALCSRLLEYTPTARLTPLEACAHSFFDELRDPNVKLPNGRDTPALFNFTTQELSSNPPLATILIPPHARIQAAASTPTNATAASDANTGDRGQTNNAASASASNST

[7] = molecular target: T4, Serine/threonine-protein kinase 3 (Homo sapiens) (UniProt Q13188); conditions: dose 10.0 µM
T4 sequence (whole entry): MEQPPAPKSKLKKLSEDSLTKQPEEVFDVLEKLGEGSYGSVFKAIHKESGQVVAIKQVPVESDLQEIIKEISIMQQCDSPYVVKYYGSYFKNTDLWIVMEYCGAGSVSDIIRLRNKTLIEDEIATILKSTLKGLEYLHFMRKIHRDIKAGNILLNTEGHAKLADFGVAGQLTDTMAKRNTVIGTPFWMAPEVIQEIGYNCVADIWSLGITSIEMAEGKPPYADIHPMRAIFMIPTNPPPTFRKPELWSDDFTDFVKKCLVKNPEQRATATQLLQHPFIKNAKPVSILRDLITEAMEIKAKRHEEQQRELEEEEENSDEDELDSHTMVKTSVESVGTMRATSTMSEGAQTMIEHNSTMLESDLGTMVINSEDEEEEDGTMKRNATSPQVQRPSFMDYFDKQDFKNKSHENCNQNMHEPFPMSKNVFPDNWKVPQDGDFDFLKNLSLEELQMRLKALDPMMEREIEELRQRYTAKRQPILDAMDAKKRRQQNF
Description: Binding affinity to recombinant MST2 (unknown origin) kinase domain assessed as thermal stabilization by measuring change in melting temperature at 10 uM by DSF analysis

[8] = molecular target: T5, Serine/threonine-protein kinase RIO1 (Homo sapiens) (UniProt Q9BRS2); assay: Binding affinity to RIOK1 (unknown origin) assessed as thermal stabilization by measuring change in melting temperature by DSF analysis
T5 sequence (whole entry): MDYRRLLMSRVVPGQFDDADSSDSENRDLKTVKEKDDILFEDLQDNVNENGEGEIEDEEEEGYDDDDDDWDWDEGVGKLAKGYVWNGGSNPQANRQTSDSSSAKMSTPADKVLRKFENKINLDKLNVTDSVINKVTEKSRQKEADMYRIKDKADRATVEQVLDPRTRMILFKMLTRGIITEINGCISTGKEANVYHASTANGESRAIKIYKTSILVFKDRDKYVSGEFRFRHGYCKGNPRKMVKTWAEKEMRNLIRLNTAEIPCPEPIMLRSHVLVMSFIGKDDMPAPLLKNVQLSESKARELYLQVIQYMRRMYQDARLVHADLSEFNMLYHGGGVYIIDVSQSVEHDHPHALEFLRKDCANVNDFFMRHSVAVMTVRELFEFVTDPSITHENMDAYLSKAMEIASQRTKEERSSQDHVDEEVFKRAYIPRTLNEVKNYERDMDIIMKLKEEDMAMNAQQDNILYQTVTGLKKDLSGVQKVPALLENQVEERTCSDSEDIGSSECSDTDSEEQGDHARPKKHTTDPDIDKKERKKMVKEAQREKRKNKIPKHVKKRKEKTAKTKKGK

[9] = Toxicity in human HCT-116 cells expressing FUCCI assessed as normalized cell count at 10 uM measured after 72 hrs by Hoechst33342 staining based analysis relative to control; conditions: read-out: Activity
[10] = Toxicity in human HCT-116 cells expressing FUCCI assessed as cells with healthy nuclei at 1 to 10 uM measured after 24 hrs by Hoechst33342 staining based analysis relative to control; type: cell-based; conditions: hct-116, 24 h, dose 1-10 µM
[11] = molecular target: T6, Serine/threonine-protein kinase 3 (Homo sapiens, UniProt Q13188); assay: Binding affinity to N-terminal full length human MST2 expressed in intact HEK293T cells incubated for 2 hrs by NanoBRET assay; type: cell-based
T6 sequence (Q13188 whole entry): T4 sequence (whole entry)

[12] = molecular target: Dual specificity protein kinase CLK1 (Homo sapiens) (UniProt P49759); assay: Binding affinity to CLK1 (unknown origin) assessed as thermal stabilization by measuring change in melting temperature by DSF analysis
Dual specificity protein kinase CLK1 (Homo sapiens), sequence (P49759 whole entry, looked up, the tested form may be a part): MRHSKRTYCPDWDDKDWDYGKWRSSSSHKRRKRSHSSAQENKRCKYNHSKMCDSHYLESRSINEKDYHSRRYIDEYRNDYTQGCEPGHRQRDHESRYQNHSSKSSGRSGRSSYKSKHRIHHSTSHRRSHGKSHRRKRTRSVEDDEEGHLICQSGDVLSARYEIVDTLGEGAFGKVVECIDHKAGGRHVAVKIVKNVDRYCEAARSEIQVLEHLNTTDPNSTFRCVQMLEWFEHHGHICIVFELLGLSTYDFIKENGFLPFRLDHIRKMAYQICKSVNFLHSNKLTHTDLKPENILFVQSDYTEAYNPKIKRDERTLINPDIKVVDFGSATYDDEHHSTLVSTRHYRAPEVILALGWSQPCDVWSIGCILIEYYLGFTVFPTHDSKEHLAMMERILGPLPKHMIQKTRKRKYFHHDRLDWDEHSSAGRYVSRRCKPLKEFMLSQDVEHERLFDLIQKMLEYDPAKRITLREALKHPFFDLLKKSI

[13] = molecular target: T1, Serine/threonine-protein kinase 26; assay: Binding affinity to N-terminal 6His-tagged TEV fused MST4 (unknown origin) expressed in Escherichia coli BL21 (DE3) cells assessed as change in binding enthalpy by ITC analysis
Target sequence in this assay (Q9P289 2-416 limits assumed): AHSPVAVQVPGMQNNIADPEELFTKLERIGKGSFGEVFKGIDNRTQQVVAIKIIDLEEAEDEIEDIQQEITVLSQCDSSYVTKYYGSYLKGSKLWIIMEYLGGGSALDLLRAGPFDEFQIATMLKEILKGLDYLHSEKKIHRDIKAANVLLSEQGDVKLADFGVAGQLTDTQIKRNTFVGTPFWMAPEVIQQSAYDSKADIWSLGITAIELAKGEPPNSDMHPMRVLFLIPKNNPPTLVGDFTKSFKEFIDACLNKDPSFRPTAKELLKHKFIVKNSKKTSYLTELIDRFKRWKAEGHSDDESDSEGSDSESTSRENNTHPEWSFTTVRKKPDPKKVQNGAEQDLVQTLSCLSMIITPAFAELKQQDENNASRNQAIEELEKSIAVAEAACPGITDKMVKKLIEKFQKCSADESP

[14] = molecular target: T1, Serine/threonine-protein kinase 26; assay: Binding affinity to C-terminal full length human MST4 expressed in permeabilized HEK293T cells incubated for 2 hrs by NanoBRET assay; type: cell-based
Target sequence in this assay (Q9P289 whole entry, the tested form may be a part): as the sequence (Q9P289 whole entry, the tested form may be a part) above

SMILES: O=C1NCCCCCNc2nc(c3ccccc3n2)Nc2cc1[nH]n2
- Kd [1]: 115 nM
- remaining at 1 h, 10 µM [2]: 88%
- Activity [3]: 36.6%
- EC50 [4]: > 50000 nM
- ΔTm [5]: 5.1 °C
- ΔTm [6]: 5.1 °C
- ΔTm [7]: 1.1 °C
- ΔTm [8]: 5.1 °C
- viability at 72 h, 10 µM [9]: < 30%
- Activity [10]: 80%
- EC50 [11]: > 50000 nM
- ΔTm [12]: 5.1 °C
- Activity [13]: Active
- EC50 [14]: 360 nM
